Results: article PMC10394814, “Discovery and evaluation of active compounds from Xuanfei Baidu formula against COVID-19 via SARS-CoV-2 M^pro” (Chinese Medicine, 2023)
pEC50: −log10 of the molar value.

Legend:
Omicron BA.1.1 variant = assay: Antiviral activity assay (CPE) in Vero E6 cells, Omicron BA.1.1; type: cell-based, SARS-CoV-2; settings: Severe acute respiratory syndrome coronavirus 2, Vero C1008, 48 h
Omicron BA.2.3 variant = assay: Antiviral activity assay (CPE) in Vero E6 cells, Omicron BA.2.3; type: cell-based, SARS-CoV-2; settings: Severe acute respiratory syndrome coronavirus 2, Vero C1008, 48 h

## C[C@@H]1O[C@@H](O[C@@H]2[C@@H](O)[C@H](OCCc3ccc(O)c(O)c3)O[C@H](CO)[C@H]2OC(=O)/C=C/c2ccc(O)c(O)c2)[C@H](O)[C@H](O)[C@H]1O [Acteoside]
Omicron BA.1.1 variant
  pEC50: 4.38
Omicron BA.2.3 variant
  pEC50: 4.15
